# From patent US20130136778A1, “PTEROSTILBENE (PTER) FOR USE IN THE PREVENTION AND/OR TREATMENT OF SKIN DISEASES, DAMAGES OR INJURIES” (GREEN MOLECULAR, S.L., priority 2009, published 2013)
# Columns and labels:
# [1] = tested on: BALB/c mice; assay: Contact hypersensitivity induced by oxazolone (ear edema); type: in vivo; settings: FIG. 22; 1 μmol polyphenols, 20 mg diprosone; applied after oxazolone
# Procedure: The edema was calculated as the difference between the thickness that was produced in the ears, before the outcomes of the reaction, and their thickness 24 hours later, and it was measured with a vernier caliper.
# The change was expressed as the relative increase in relation to day 0.
# The application of oxazolone after sensitization to the same substance produces a reaction of hypersensitivity by contact, which appears as an eczematous reaction, with infiltration of lymphocytes and macrophages, with edema of the epidermis.
# The BALB/c mice are sensitized on day 0 through the application, on the shaved abdomen, of 100 μL of oxazolone at 1.5% in acetone (w/v). Prior to the induction for hypersensitization, the thickness of the ear was measured with the help of a vernier caliper (Mitutoyo micrometer). The reaction was caused on day 7 by applying 20 μL of 2.5% oxazolone in ethanol (10 μL to each side of the right ear).
# As a control measure the left ear was used, to which 20 μL of ethanol was applied. And a standard treatment, Diprosone® cream was used: (Schering Plough B. V., Utrecht, The Netherlands), that contains 0.5 mg de betamethasone/g. […]
# [2] = tested on: SKH-1 mice; assay: Anatomopathological study of the skin after chronic exposure to UV-B; type: in vivo; settings: chronic UV-B irradiation
# Procedure: Histochemical techniques were used to study the skin tissues of the different procedures, at a microscopic level.
# The tissues were fixed in 4% formaldehyde in PBS over 24 h at 22° C. After the tissues were fixed, they had to be dehydrated in large amounts of ethanol and placed in a hydrophobic and xylene mixture to allow the paraffin to penetrate the tissues to provide sufficient consistency for slicing them thinly in a microtome.
# The samples in paraffin were processed with the microtome obtaining slices of about 5-10 μm. The samples were spread over a drop of gelatin at 37° C. and were collected in gelatinized slides.
# The protocol used for staining the samples was: • 1. Incubation with Mayer's Hematoxylin for 10-15 minutes. • 2. Wash under running water until bluish. • 3. Incubate with Eosin (1%) for 2-4 minutes. • 4. Eliminate the remaining eosin in ethanol 70° • 5. Dehydration. • 6. Rinse with xylol for 3 minutes. • 7. Let the trays dry out on the stove at 37°.
# In relation to the histopathological exam of the tumors induced by chronic irradiation to UV in the SKH1 mice, it was confirmed that the treatment with UV-B produced a strong acanthosis due primarily to the inflammatory process; this gave way to the first signs of tumors, mostly of carcinoma type and not melanoma.
# Both the reference compounds and the ones subject of this study (10 μmoles/mouse of polyphenols, or 200 μl of each photoprotector) were applied to the back of the mice for 20 minutes prior to their exposure to UV-B. Medium of groups of 20 mice. Every parameter was measured according to the degree of seriousness (+) light-(+++) serious.
compound,measurement,setting,value
"COc1cc(/C=C/c2ccc(O)cc2)cc(OC)c1 [PTER, 3,5-dimethoxy-4′-hydroxy-trans-resveratrol]",edema of the ear / inflammatory changes induced by oxazolone,[1],could prevent inflammatory changes as a result of inflammation induced by oxazolone
same,"anti-inflammatory and anti-tumor formation effect, histopathological exam",[2],the compound with greatest benefits
